Data: US20250197382A1, “KIF18A INHIBITOR” (WIGEN BIOMEDICINE TECHNOLOGY (SHANGHAI) CO., LTD., priority 2022, published 2025)

Columns and labels:
[1] = molecular target: Recombinant human KIF18A (1-467His-tagged) protein (Homo sapiens (Human), UniProt Q8NI77); test: KIF18A enzyme assay (microtubule-stimulated ATPase activity, ADP-Glo); format: biochemical; settings: 30 nM KIF18A, ATP 75 μM, read-out: inhibitory activity against KIF18A IC50
How it was run: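 Baculovirus-expressed human KIF18A (1-467, His-tagged; 30 nM) preincubated 15 min at room temperature with compound (22-point 2-fold series) in pH 7.5 Tris buffer containing 30 μg/mL pig microtubules and 1 μM paclitaxel.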

HCT116 cells = test: In vitro anti-proliferative activity against HCT116 cells (intracellular ATP content, 72 h); format: cell-based; settings: Homo sapiens, HCT-116, 72 h after dosing
Experimental: Biological Example 3. In Vitro Anti-Proliferative Activity of Compounds of the Present Invention Against HCT116 Cells
(§1) HCT116 cells were seeded on a 384-well plate at 3000 cells/well. After overnight adherence culture, DMSO or the compounds serially diluted in a 1:5 ratio from 5 μM were added. The viability was assessed 72 h after dosing by measuring the intracellular ATP content. The inhibition percentages of viable cells by the compounds were calculated by comparing with the DMSO group, and the IC50 values were also calculated.

HT-29 cells = test: In vitro anti-proliferative activity against HT-29 cells (intracellular ATP content, 72 h); format: cell-based; settings: Homo sapiens, 72 h after dosing
Experimental: Biological Example 2. In Vitro Anti-Proliferative Activity of Compounds of the Present Invention Against HT-29 Cells
as §1, with “HT-29” for “HCT116”, “[…]” for “IC50”

Sequence of Recombinant human KIF18A (1-467His-tagged) protein (Q8NI77 1-467): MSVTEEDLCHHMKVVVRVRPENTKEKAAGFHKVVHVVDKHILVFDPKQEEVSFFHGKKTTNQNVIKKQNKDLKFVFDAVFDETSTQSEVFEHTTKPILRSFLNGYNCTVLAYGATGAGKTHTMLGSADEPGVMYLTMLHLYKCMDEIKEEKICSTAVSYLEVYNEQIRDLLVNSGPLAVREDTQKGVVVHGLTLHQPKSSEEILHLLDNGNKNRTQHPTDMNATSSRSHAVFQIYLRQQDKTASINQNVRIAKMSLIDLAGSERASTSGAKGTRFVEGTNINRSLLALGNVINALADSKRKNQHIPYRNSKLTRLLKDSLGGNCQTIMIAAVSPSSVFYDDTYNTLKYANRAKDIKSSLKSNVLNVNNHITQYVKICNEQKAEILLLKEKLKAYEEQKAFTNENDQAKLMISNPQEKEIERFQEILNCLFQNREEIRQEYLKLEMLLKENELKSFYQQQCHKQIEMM
Sequence of Recombinant human KIF18A (1-467His-tagged) protein (P02550 whole entry partner): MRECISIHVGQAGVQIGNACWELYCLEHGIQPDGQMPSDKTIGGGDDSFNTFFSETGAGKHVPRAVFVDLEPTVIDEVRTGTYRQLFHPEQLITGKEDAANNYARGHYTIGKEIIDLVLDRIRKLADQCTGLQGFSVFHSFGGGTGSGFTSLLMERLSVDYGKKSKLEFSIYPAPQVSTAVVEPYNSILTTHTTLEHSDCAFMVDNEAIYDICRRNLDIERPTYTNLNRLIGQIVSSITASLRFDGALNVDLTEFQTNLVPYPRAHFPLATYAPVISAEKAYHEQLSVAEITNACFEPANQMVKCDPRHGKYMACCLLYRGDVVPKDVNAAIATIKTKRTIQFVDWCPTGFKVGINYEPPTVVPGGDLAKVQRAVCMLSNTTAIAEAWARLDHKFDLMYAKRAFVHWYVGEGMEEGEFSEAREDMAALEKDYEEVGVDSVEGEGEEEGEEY
Sequence of Recombinant human KIF18A (1-467His-tagged) protein (P02554 whole entry partner): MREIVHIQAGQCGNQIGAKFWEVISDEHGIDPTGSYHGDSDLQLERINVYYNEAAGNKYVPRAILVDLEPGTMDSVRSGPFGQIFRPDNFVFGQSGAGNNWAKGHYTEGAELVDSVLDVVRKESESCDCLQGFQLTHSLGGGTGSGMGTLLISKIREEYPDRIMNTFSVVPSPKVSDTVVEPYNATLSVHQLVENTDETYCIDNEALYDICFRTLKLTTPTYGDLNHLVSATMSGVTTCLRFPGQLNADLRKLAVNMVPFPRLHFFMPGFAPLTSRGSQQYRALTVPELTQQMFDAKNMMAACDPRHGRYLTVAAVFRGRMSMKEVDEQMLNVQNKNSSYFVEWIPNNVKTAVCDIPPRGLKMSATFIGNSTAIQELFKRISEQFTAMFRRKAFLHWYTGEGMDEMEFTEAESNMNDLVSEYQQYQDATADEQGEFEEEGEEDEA

Row | SMILES | IC50 [1] | IC50 (HCT116 cells) | IC50 (HT-29 cells)
1 | O=C(Nc1cc(N2CCC(F)(F)CC2)c2ocnc2c1)c1ccc(NS(=O)(=O)CCO)cc1N1CCC2(CC1)CC2 [Compound 513] | ≤ 0.1 µM | > 10 µM | 0.071 µM
2 | O=C(Nc1cc2cc[nH]c2c(N2CCC(F)(F)CC2)n1)c1ccc(NS(=O)(=O)CCO)cc1N1CCC2(CC1)CC2 [Compound 522] | ≤ 0.1 µM | 8.19 µM | 0.069 µM
3 | O=C(Nc1cc2c(c(N3CCC(F)(F)CC3)c1)OCCC2)c1ccc(NS(=O)(=O)CCO)cc1N1CCC2(CC1)CC2 [Compound 539] | ≤ 0.1 µM | > 10 µM | 0.043 µM
4 | C[C@@H]1CN(c2nc(NC(=O)c3ccc(NS(=O)(=O)CCO)cc3N3CCC4(CC3)CC4)cc3c2OCC3)CCO1 [Compound 66] | ≤ 0.1 µM | > 10 µM | 0.085 µM
5 | O=C(Nc1cc2c(c(N3CCC(F)(F)CC3)c1)OCC2)c1ccc(NS(=O)(=O)CCO)cc1N1CCC2(CC1)CC2 [Compound 1] | ≤ 0.1 µM | > 10 µM | 0.009 µM
6 | O=C(Nc1cc2c(c(OCCC(F)(F)F)n1)OCC2)c1ccc(NS(=O)(=O)CCO)cc1N1CCC2(CC1)CC2 [Compound 69] | ≤ 0.1 µM | > 10 µM | 0.071 µM
7 | O=C(Nc1cc2c(c(OC3CCC3)n1)OCC2)c1ccc(NS(=O)(=O)CCO)cc1N1CCC2(CC1)CC2 [Compound 71] | ≤ 0.1 µM | > 10 µM | 0.056 µM
8 | Cn1ccc2cc(NC(=O)c3ccc(NS(=O)(=O)CCO)cc3N3CCC4(CC3)CC4)cc(N3CCC(F)(F)CC3)c21 [Compound 385] | ≤ 0.1 µM | > 10 µM | 
9 | O=C(Nc1cc2c(c(N3CCC(F)(F)CC3)n1)OCC2)c1ccc(NS(=O)(=O)CCO)cc1N1CCC2(CC1)CC2 [Compound 65] | ≤ 0.1 µM | > 10 µM | 0.008 µM
10 | O=C(Nc1ccc(NS(=O)(=O)CCO)cc1N1CCC2(CC1)CC2)c1cc2c(c(OCCC(F)(F)F)c1)OCC2 [Compound 5] |  | > 10 µM | 0.088 µM
11 | C[C@@H]1CN(c2cc(NC(=O)c3ccc(NS(=O)(=O)CCO)cc3N3CCC4(CC3)CC4)cc3c2OCC3)CCO1 [Compound 2] | ≤ 0.1 µM | > 10 µM | 
12 | O=C(Nc1ccc(S(=O)(=O)NCCO)cc1N1CCC2(CC1)CC2)c1cc2c(c(N3CCC(F)(F)CC3)c1)OCC2 [Compound 49] | ≤ 0.1 µM | > 10 µM | 0.061 µM
13 | O=C(Nc1ccc(NS(=O)(=O)CCO)cc1N1CCC2(CC1)CC2)c1cc2c(c(N3CCC(F)(F)CC3)n1)OCC2 [Compound 97] | ≤ 0.1 µM | > 10 µM | 0.057 µM
14 | O=C(Nc1ccc(NS(=O)(=O)CCO)cc1N1CCC2(CC1)CC2)c1cc2c(c(N3CCC(F)(F)CC3)c1)OCC2 [Compound 33] | ≤ 0.1 µM | > 10 µM | 0.052 µM
15 | Cc1cc(NC(=O)c2ccc(NS(=O)(=O)CCO)cc2N2CCC3(CC2)CC3)nc(N2CCC(F)(F)CC2)n1 [AMG650, reference compound] |  | > 10 µM | 0.089 µM
16 | C[C@H]1CN(c2cc(NC(=O)c3ccc(NS(=O)(=O)CCO)cc3N3CCC4(CC3)CC4)cc3c2N(C)CC3)CCO1 [Compound 259] | ≤ 0.1 µM |  | 
17 | Cn1ccc2cc(C(=O)Nc3ccc(NS(=O)(=O)CCO)cc3N3CCC4(CC3)CC4)cc(N3CCOCC3)c21 [Compound 428] | ≤ 0.1 µM |  | 
18 | CC1(F)CCN(c2nc(C(=O)Nc3ccc(S(=O)(=O)NCCO)cc3N3CCC4(CC3)CC4)cc3ccoc23)C1 (stereo not drawn) [Compound 248] | ≤ 0.1 µM |  | 
19 | O=C(Nc1cc2c(c(N3CCC(F)(F)CC3)c1)OCCO2)c1ccc(NS(=O)(=O)CCO)cc1N1CCC2(CC1)CC2 [Compound 543] | ≤ 0.1 µM |  | 
20 | O=C(Nc1cc2c(c(N3CC4CC4C3)c1)OCC2)c1ccc(NS(=O)(=O)CCO)cc1N1CCC2(CC1)CC2 (stereo not drawn) [Compound 10] | ≤ 0.1 µM |  | 
21 | C[C@@H](CO)NS(=O)(=O)c1ccc(C(=O)Nc2cc3ccoc3c(N3CCC(F)(F)CC3)n2)c(N2CCC3(CC2)CC3)c1 [Compound 221] | ≤ 0.1 µM |  | 
22 | C[C@@H](CO)NS(=O)(=O)c1ccc(NC(=O)c2cc3c(c(N4CCC(F)(F)CC4)c2)OCC3)c(N2CCC3(CC2)CC3)c1 [Compound 61] | ≤ 0.1 µM |  | 

Second part, the molecule after the results:

Row | IC50 [1] | IC50 (HCT116 cells) | IC50 (HT-29 cells) | SMILES
23 | ≤ 0.1 µM | > 10 µM | 0.073 µM | O=C(Nc1cc2c(c(OC3CCC3)c1)OCC2)c1ccc(NS(=O)(=O)CCO)cc1N1CCC2(CC1)CC2 [Compound 7]
24 |  | > 10 µM | 0.07 µM | O=C(Nc1ccc(NS(=O)(=O)CCO)cc1N1CCC2(CC1)CC2)c1cc2cccnc2c(N2CCC(F)(F)CC2)n1 [Compound 584]
25 | ≤ 0.1 µM | > 10 µM | 0.051 µM | O=C(Nc1cc2c(c(N3CC(F)(F)C3)n1)OCC2)c1ccc(NS(=O)(=O)CCO)cc1N1CCC2(CC1)CC2 [Compound 68]
26 | ≤ 0.1 µM | > 10 µM | 0.04 µM | O=C(Nc1cc(N2CCC(F)(F)CC2)c2occc2c1)c1ccc(NS(=O)(=O)CCO)cc1N1CCC2(CC1)CC2 [Compound 129]
27 |  | > 10 µM | 0.038 µM | O=C(Nc1cc2cccnc2c(N2CCC(F)(F)CC2)n1)c1ccc(NS(=O)(=O)CCO)cc1N1CCC2(CC1)CC2 [Compound 583]
28 | ≤ 0.1 µM | > 10 µM |  | C[C@H]1CN(c2cc(NC(=O)c3ccc(NS(=O)(=O)CCO)cc3N3CCC4(CC3)CC4)cc3c2OCC3)CCO1 [Compound 3]
29 | ≤ 0.1 µM | > 10 µM |  | O=C(Nc1cc2c(c(N3CCC4(CC4)C3)n1)OCC2)c1ccc(NS(=O)(=O)CCO)cc1N1CCC2(CC1)CC2 [Compound 70]
30 | ≤ 0.1 µM | > 10 µM |  | C[C@H]1CN(c2nc(NC(=O)c3ccc(NS(=O)(=O)CCO)cc3N3CCC4(CC3)CC4)cc3c2OCC3)CCO1 [Compound 67]
31 | ≤ 0.1 µM | > 10 µM | 0.036 µM | O=C(Nc1cc(N2CCC(F)(F)CC2)c2ncccc2c1)c1ccc(NS(=O)(=O)CCO)cc1N1CCC2(CC1)CC2 [Compound 530]
32 | ≤ 0.1 µM | > 10 µM | 0.063 µM | O=C(Nc1cc2c(c(N3CC(F)(F)C3)c1)OCC2)c1ccc(NS(=O)(=O)CCO)cc1N1CCC2(CC1)CC2 [Compound 4]
33 | ≤ 0.1 µM | > 10 µM | 0.051 µM | O=C(Nc1cc2c(c(N3CCC(F)(F)CC3)n1)OCC2)c1ccc(S(=O)(=O)NCCO)cc1N1CCC2(CC1)CC2 [Compound 81]
34 | ≤ 0.1 µM | > 10 µM | 0.081 µM | O=C(Nc1ccc(S(=O)(=O)NCCO)cc1N1CCC2(CC1)CC2)c1cc2c(c(N3CCC(F)(F)CC3)n1)OCC2 [Compound 113]
35 | ≤ 0.1 µM | > 10 µM |  | O=C(Nc1cc2c(c(N3CCC4(CC4)C3)c1)OCC2)c1ccc(NS(=O)(=O)CCO)cc1N1CCC2(CC1)CC2 [Compound 6]
